Drawing on PubChem BioAssay (NCI), this text covers GI50 and TGI for 10 compounds.

Common to all, as to assay: DTP human tumour cell line panel, 48 h
Assay [1] has as its system UO-31 renal.
In assay [2] the test system is T-47D breast.
Assay [3] has as its system OVCAR-4 ovarian.
Assay [4] deals with HT29 colon.
The subject of assay [5] is M14 melanoma.
Assay [6] relates to SNB-75 CNS.
Assay [7] relates to SNB-19 CNS.
Assay [8] relates to A549 NSCLC.
The test system of assay [9] is UACC-257 melanoma.
Assay [10] concerns NCI-H226 lung.

Where “and” joins values, the source holds several entries; their conditions need not be identical. Equal entries are not always repeated.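 1) Cells in 96-well plates. 2) Compound, 48 h, 5 concentrations. 3) Linear interpolation between surrounding doses. 4) Unreached endpoint = highest concentration. The concentration for 50% growth inhibition is given as GI50. TGI: concentration producing complete growth inhibition.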 *1 amine or outer side, *2 acyl side, *3 side chain or, on linkers, in order; H or OH if unused. Where a SMILES comes first, the peptide text is derived from it. Bridges are numbered along the chain shown (N, C = ends). Roman numbers before positions name the chains, in order. [ ]: non-standard residue; d: D form. Actinocin(9to1) = Cc1c2oc3c(C)ccc(C(=O)[*:1])c3nc-2c(C(=O)[*:2])c(N)c1=O; NMeF = CN[CH](Cc1ccccc1)C(=O)O; Sar = CNCC(=O)O

As for `Cc1c2oc3c(C)ccc(C(=O)NC4C(=O)NC(C(C)C)C(=O)N5CCCC5C(=O)N(C)CC(=O)N(C)C(Cc5ccccc5)C(=O)OC4C)c3nc-2c(C(=O)NC2C(=O)NC(C(C)C)C(=O)N3CCCC3C(=O)N(C)CC(=O)N(C)C(Cc3ccccc3)C(=O)OC2C)c(N)c1=O` (stereo not drawn) (I: TVP[Sar][NMeF] / II: TVP[Sar][NMeF]; ester I:1-I:C, II:1-II:C; linker I:N-II:N via Actinocin(9to1); configuration not given here), the GI50 is < 0.01 µM and 0.0968 µM in assay [1]; < 0.01 µM and 0.00123 µM in assay [4]; < 0.01 µM and 0.00378 µM in assay [7]; < 0.01 µM and 0.00145 µM in assay [8]. The TGI in assay [2] was < 0.01 µM and 0.0419 µM; in assay [3], < 0.0109 µM and 0.033 µM; in assay [5], 0.126 µM; in [6] it was 0.0645 µM; in assay [7] it was 0.118 µM and > 0.381 µM; in [8], 0.295 µM and > 1 µM.

Turning to `C=C1C(=O)O[C@H]2[C@H]1CC/C(COC(=O)NCc1ccc(Cn3c(=O)sn(-c4ccccc4)c3=O)cc1)=C\CC[C@@]1(C)O[C@@H]21`, the GI50 in assay [1] is 1.68 µM; in assay [2] it was 1.98 µM; in [3] it was 2.74 µM; in assay [4], 2.15 µM; in assay [9], 1.86 µM; in assay [5] it was 1.8 µM. In addition, the results for the GI50 in assay [10], in assay [7] and in [8] were 14.8 µM, 4.26 µM and 6.22 µM, respectively. Further, the TGI in assay [1] stood at 3.16 µM; in [2], 4.66 µM; in [3] it was 8.19 µM; in [4], 4.14 µM; in assay [9] it was 4.14 µM; in assay [5], 3.58 µM. Also, the TGI amounted to 35.2 µM in [10], 16.1 µM in [7] and 20.6 µM in [8].

Turning to `O=C(O)/C(=C\c1ccncc1)c1cccc2ccccc12`, the concentration for total growth inhibition (TGI) in [2] is > 100 µM; in assay [3], > 100 µM; in assay [4], > 100 µM; in [9], 30.7 µM; in assay [5] it was > 100 µM; in assay [6], > 100 µM. For the same compound, the TGI in assay [7] and in assay [8] was > 100 µM throughout.

Regarding `O=C(NC(=O)c1ccccc1[N+](=O)[O-])Nc1ccc(Oc2ncc(Cl)cn2)c(C(F)(F)F)c1`, the TGI in assay [1] was 35.2 µM; in assay [2], > 89.1 µM; in assay [3] it was 98.4 µM; in assay [4] it was 0.167 µM; in assay [9], 41.8 µM; in [5], 39.4 µM. Further, the TGI is 1.39 µM in assay [10], 85.7 µM in [7] and > 100 µM in [8].

Turning to `CCCCCCCCCCCCCCCC1=NC(C)(C)CN1C(C)C`, the GI50 was 1.44 µM in assay [1]; 1.93 µM in assay [2]; 2.04 µM in [3]; 1.77 µM in assay [9]; 1.57 µM in [5]; 2.13 µM in [10]. The GI50 in assay [6] was 1.47 µM; in assay [7], 2.04 µM; in assay [8] it was 1.81 µM. Besides, the TGI in assay [1] is 2.84 µM; in [2], 4.54 µM; in [3], 6.37 µM; in assay [9], 3.31 µM; in assay [5] it was 2.91 µM; in assay [10], 6.6 µM. Also, the TGI in [6] was determined as 2.94 µM; in [7], 5.02 µM; in assay [8], 3.43 µM.

For the compound `Oc1ccc(N=Nc2ccccn2)c(O)c1`, the GI50 in assay [1] was 0.479 µM; in [2], 2.05 µM; in assay [3], 0.267 µM; in [4], 0.434 µM; in assay [9] it was 3.06 µM; in assay [10], 3.4 µM. In addition, the GI50 in assay [7] is 2.07 µM; in assay [8], 2.94 µM. Also, the TGI in assay [1] is > 100 µM; in assay [2], > 100 µM; in assay [3], 6.41 µM; in assay [4] it was > 100 µM; in [9], > 100 µM; in assay [10], 82.1 µM. For the same compound, the TGI in [7] and in assay [8] was > 100 µM in each case.

For the compound `COc1cccc2c1n([O-])c1cccc(OC)c1[n+]2=O`, the GI50 is 6.7 µM in [1]; 2.39 µM in assay [2]; 9.69 µM in [9]; 7.02 µM in assay [5]; 6.1 µM in assay [10]; 7.78 µM in assay [8]. Moreover, the TGI in assay [1] is 32.7 µM; in assay [2] it was 10.3 µM; in assay [9] it was 28.7 µM; in [5] it was 26.5 µM; in assay [10], 28.8 µM; in assay [8] it was > 100 µM.

On to `Cc1c(Cl)cccc1NC(=O)c1sc2nc3c(cc2c1N)CCCCC3`, for which the GI50 is 1.65 µM in assay [1]; 0.22 µM in assay [2]; 5.28 µM in assay [3]; 0.186 µM in assay [4]; 0.233 µM in assay [5]; 4.68 µM in [10]. The GI50 in [7] was 0.298 µM; in [8] it was 0.725 µM. Besides, the TGI in assay [1] was > 50 µM; in assay [2], > 50 µM; in assay [3], > 50 µM; in assay [4], 5.02 µM; in assay [5] it was > 50 µM; in assay [10], 34.1 µM. In addition, the TGI in [7] and in assay [8] was > 50 µM each time.

Take `O=Nc1c(-c2c(O)[nH]c3ccc(Br)cc23)[nH]c2ccccc12`: the GI50 in [1] was 2.81 µM; in assay [2], 12.1 µM; in [3] it was 5.94 µM; in assay [4], 8.3 µM; in assay [9] it was 15 µM; in assay [10], 3.89 µM. Besides, the GI50 in assay [6] is 7.58 µM; in [7], 7.99 µM; in assay [8], 3.21 µM. Moreover, the TGI in assay [1] is > 100 µM; in assay [2], > 100 µM; in assay [3], 74.4 µM; in assay [4], > 100 µM; in [9], > 100 µM; in [10], 16.7 µM. The TGI is 28.3 µM in assay [6], > 100 µM in assay [7] and > 100 µM in [8].

Turning to `C[C@@H](Nc1nc(Nc2ccc(F)c(Cl)c2)nc2ccccc12)C1CC1`, the GI50 in [1] is 2.62 µM; in [2], 2.7 µM; in assay [3], 1.73 µM; in assay [4], 2.72 µM; in assay [5], 1.87 µM; in assay [10] it was 6.37 µM. Also, the values for the GI50 in [6], in [7] and in assay [8] were 4.08 µM, 4.44 µM and 5.64 µM, respectively. In addition, the TGI stood at 14 µM in assay [1]; 14 µM in assay [2]; 12.9 µM in [3]; 11.7 µM in assay [4]; 4.12 µM in assay [5]; 35.9 µM in [10]. Further, the TGI in [6] amounted to 22.3 µM; in assay [7] it was 22.1 µM; in assay [8], 19.6 µM.

One may read the GI50 as the concentration giving 50% growth inhibition. For orientation: TGI means the concentration at which net growth stops. A higher TGI goes with less potent growth arrest.
